Our source for the EC50 values is publication PMC9782500 (International Journal of Molecular Sciences, 2022).

A value given as a limit tells only on which side of the number the result lay.

For orientation: EC50 means the concentration that produces a half-maximal response. The low end stands for a more potent agent, the high end for a less potent agent.

This assay deals with T1, RXRα (Homo sapiens, UniProt P19793).
T1 sequence (P19793 227-458 limits assumed): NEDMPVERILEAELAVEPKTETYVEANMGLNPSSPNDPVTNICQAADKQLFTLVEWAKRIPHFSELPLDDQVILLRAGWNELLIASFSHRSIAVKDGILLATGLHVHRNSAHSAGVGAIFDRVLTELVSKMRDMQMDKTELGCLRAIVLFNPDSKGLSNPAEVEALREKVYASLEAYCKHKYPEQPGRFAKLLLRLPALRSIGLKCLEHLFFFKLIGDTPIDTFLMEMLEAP
The experiment in a line: RXRα activation EC50 (Luc and GFP UAS/Gal4 assays).
Description: UAS/Gal4 assay. Bone marrow cells from UAS-GFP mice [79] were transduced with retroviruses MSCV-Gal4 (DNA binding domain, DBD)—RXRα (ligand binding domain, LBD)—IRES—mCherry. […] Cells were treated, and after 48 h, GFP was measured by flow cytometry.
Luciferase detection. HEK293T cells were transfected using Lipofectamine 2000 (Invitrogen) [80]. Six hours after transfection, the cells were collected and plated into a 48-well plate in 1% BSA media in biological triplicates and treated with compounds. After 40 h incubation, the cells were harvested and assayed for luciferase (Luc Assay System with Reporter Lysis Buffer, Promega) in a Beckman Coulter LD400 plate reader.
Regarding `Cc1cc2c(cc1N(C)c1ccc(C(=O)O)cc1)C(C)(C)CCC2(C)C` [Compound 23, reference compound], a half-maximal response (EC50) required 8.6 nM. Take `Cc1cc2c(cc1N(C)c1ncc(C(=O)O)cn1)C(C)(C)CCC2(C)C` [Compound 24, reference compound]: the EC50 turned out to be 6.2 nM. The same measure for `CN(c1ccc2c(c1)C(C)(C)CCC2(C)C)c1ncc(C(=O)O)cn1` [Compound 25, reference compound]: 17.8 nM; for `C=C(c1ccc(C(=O)O)cc1)c1cc2c(cc1C)C(C)(C)OCC2(C)C` [Compound 26]: 51 nM; for `Cc1ccc(/C=C/C(=O)O)cc1-c1cc2c(cc1C)C(C)(C)OCC2(C)C` [Compound 27]: 65.3 nM.

`Cc1cc2c(cc1-c1cc(/C=C/C(=O)O)ccc1C(F)(F)F)C(C)(C)COC2(C)C` [Compound 28] showed an EC50 of 59.2 nM. To `Cc1cc2c(cc1-c1cc(/C=C/C(=O)O)ccc1O)C(C)(C)COC2(C)C` [Compound 29] belongs 3.9 nM; to `Cc1cc2c(cc1-c1coc3cc(C(=O)O)ccc13)C(C)(C)COC2(C)C` [Compound 30], > 1000 nM; to `Cc1cc2c(cc1N(C)c1ccc(C(=O)O)cn1)C(C)(C)CCC2(C)C` [Compound 31], 5.4 nM. The same measure for `C=CCN(c1ccc(C(=O)O)cn1)c1cc2c(cc1C)C(C)(C)CCC2(C)C` [Compound 32]: 1.8 nM. `C=CCN(c1ncc(C(=O)O)cn1)c1cc2c(cc1C)C(C)(C)CCC2(C)C` [Compound 33] returned an EC50 of 5.3 nM. The same measure for `C=CCN(c1ccc(C(=O)O)cc1)c1cc2c(cc1C)C(C)(C)CCC2(C)C` [Compound 34]: 11.5 nM; for `C=CCN(c1ccc2c(c1)C(C)(C)CCC2(C)C)c1ncc(C(=O)O)cn1` [Compound 35]: 0.54 nM. The same measure for `Cc1cc2c(cc1N(C)c1ccc(C(=O)O)cn1)C(C)(C)COC2(C)C` [Compound 36]: 75 nM. The same measure for `Cc1cc2c(cc1N(C)c1ncc(C(=O)O)cn1)C(C)(C)COC2(C)C` [Compound 37]: 405 nM. Regarding `CCN(c1ccc(C(=O)O)cn1)c1cc2c(cc1C)C(C)(C)OCC2(C)C` [Compound 38], the EC50 stood at 23.7 nM.

Take `CCN(c1ncc(C(=O)O)cn1)c1cc2c(cc1C)C(C)(C)OCC2(C)C` [Compound 39]: a half-maximal response (EC50) required 152 nM.

For `C=CCN(c1ccc(C(=O)O)cn1)c1cc2c(cc1C)C(C)(C)OCC2(C)C` [Compound 40], the EC50 stood at 10.7 nM.

For `C=CCN(c1ncc(C(=O)O)cn1)c1cc2c(cc1C)C(C)(C)OCC2(C)C` [Compound 41], the EC50 was determined as 143 nM. The same measure for `Cc1cc2c(cc1N(C)c1ccc(C(=O)O)cc1)C(C)(C)COC2(C)C` [Compound 42]: 87.7 nM; for `CCN(c1ccc(C(=O)O)cc1)c1cc2c(cc1C)C(C)(C)OCC2(C)C` [Compound 43]: 23.1 nM; for `C=CCN(c1ccc(C(=O)O)cc1)c1cc2c(cc1C)C(C)(C)OCC2(C)C` [Compound 44]: 116 nM.
